Measurements: patent US7157452B2, “Substituted 4,9-dihydrocyclopenta{imn}phenanthridine-5-ones derivatives thereof and their uses” (MGI GP, Inc., priority 2001, dated 2007)
Values joined by “and” are separate entries in the source; they are usually repeats but may differ in a detail not shown here. Equal values may be shown once. Read-outs that look alike come from different tables or passages of the source.

How the values were obtained:
rabbits = conditions: cited from earlier work
Swiss albino mice = assay: Gout model: MSU crystal-induced neutrophil recruitment (peritonitis); assay type: in vivo
Description: Male outbread Swiss albino mice (20–22 g body weight) were purchased from Banton and Kingsman (T.O. strain; Hull, Humberside) and maintained on a standard chow pellet diet with tap water ad libitum and a 12:00 h light dark cycle. All animals were housed for 1 week prior to experimentation to allow body weight to reach 23–30 g.
1.11b-dihydrobenzopyrano[4,3,2-de]isoquinolin-1-one was dissolved in 100% DMSO at room temperature at a concentration of 45 mg in 2 ml. The compound was then injected into the peritoneal cavity, so as each mouse received a single dose corresponding to 45 mg/2 ml/kg (e.g. 60 μl for a mouse of 30 g). Control mice received DMSO at 2 ml/kg i.p. A third group of mice which were left untreated were added to control for potential effects of the vehicle. The study involved therefore, the following three groups: group A, untreated mice, n=6, group B, DMSO-treated mice, n=8, and group C, mice treated with 1.1 lb-dihydrobenzopyrano[4,3,2-de]isoquinolin-1-one, n=8
MSU crystal-induced neutrophil recruitment was tested as follows. In all cases, mice were treated 1 h after the treatment noted above, with MSU crystals. A homogenous suspension of MSU crystals was obtained by a 30 min rotation. Peritonitis was induced by injection of 3 mg MSU crystals in 0.5 ml PBS (0.1 M, pH 7.4), and the recruitment of neutrophils into the cavity evaluated at the 6 h time point (Gerting et al., 1997, J. Pharmacol. Exp. Ther. 233: 123–130). Animals were then euthanised by CO2 exposure and the peritoneal cavity washed with 3 ml of PBS supplemented with 3 mM EDTA and 25 U/ml heparin.
An aliquot (100 μl) of the lavage fluid was then diluted 1:10 in Turk's solution (0.01% crystal violet in 3% acetic acid). The samples were then vortexed and 10 μl of the stained cell solution were placed in a Neubauer haematocymometer and neutrophils numbers counted using a light microscope (Olympus B061). […]
Data are shown for single mice, and also shown as mean±S.E. of (n) mice per group. Statistical differences were determined by ANOVA, plus Bonferroni test. […]

PARP = conditions: read-out: IC50 for inhibiting PARP; reported by Suto et al.; cited from earlier work
male Long-Evans rats = assay: Focal cerebral ischemia (right distal MCA cauterization with temporary bilateral CCA occlusion); assay type: in vivo; conditions: 24 h, mean±SD
Description: Focal cerebral ischemia is produced by cauterization of the right distal MCA (middle cerebral artery) with bilateral temporary common carotid artery occlusion in male Long-Evans rats for 90 minutes. All procedures performed on the animals are approved by the University Institutional Animal Care and Use Committee of the University of Pennsylvania. A total of 42 rats (weights: 230–340 g) obtained from Charles River were used in this study. The animals fasted overnight with free access to water prior to the surgical procedure.
Two hours prior to MCA occlusion, varying amounts (control, n=14; 5 mg/kg, n=7; 10 mg/kg, n=7; 20 mg/kg, n=7; and 40 mg/kg, n=7) of the compound, 3,4-dihydro-5-[4-(1-piperidinyl)-butoxy]-1(2H)-isoquinolinone (“DPQ”) were dissolved in dimethyl sulfoxide (DMSO) using a sonicator. A volume of 1.28 ml/kg of the resulting solution was injected intraperitoneally into […].
The rats were then anesthetized with halothane (4% for induction and 0.8%–1.2% for the surgical procedure) in a mixture of 70% nitrous oxide and 30% oxygen. The body temperature was monitored by a rectal probe and maintained at 37.5±0.5° C. with a heating blanket regulated by a homeothermic blanket control unit (Harvard Apparatus Limited, Kent, U.K.). A catheter (PE-50) was placed into the tail artery, and arterial pressure was continuously monitored and recorded on a Grass polygraph recorder (Model 7D, Grass Instruments, Quincy, Mass.). Samples for blood gas analysis (arterial pH, PaO2 and PaCO2) were also talcen from the tail artery catheter and measure with a blood gas analyzer (ABL 30, Radiometer, Copenhagen, Denmark). Arterial blood samples were obtained 30 minutes after MCA occlusion.
The head of the animal was positioned in a stereotaxic frame, and a right parietal incision between the right lateral canthus and the external auditory meatus was made. Using a dental drill constantly cooled with saline, a 3 mm burr hole was prepared over the cortex supplied by the right MCA, 4 mm lateral to the sagittal suture and 5 mm caudal to the coronal suture. The dura mater and a thin inner bone layer were kept, care being taken to position the probe over a tissue area devoid of large blood vessels. The flow probe (tip diameter of 1 mm fiber separation of 0.23 mm) was lowered to the bottom of the cranial burr hole using a micromanipulator. The probe was held stationary by a probe holder secured to the skull with dental cement. The microvascular blood flow in the right parietal cortex was continuously monitored with a laser Doppler flowmeter (FloLab, Moor, Devon, U.K., and Periflux 4001, Perimed, Stockholm, Sweden). […]

[1] = biological target: T1, purified recombinant human PARP (Homo sapiens, UniProt P09874); assay: PARP enzyme assay with [3H]NAD, scintillation counting; assay type: biochemical
T1 construct: purchased Trevigan (Gaithersburg, Md.)
T1 sequence (P09874 whole entry): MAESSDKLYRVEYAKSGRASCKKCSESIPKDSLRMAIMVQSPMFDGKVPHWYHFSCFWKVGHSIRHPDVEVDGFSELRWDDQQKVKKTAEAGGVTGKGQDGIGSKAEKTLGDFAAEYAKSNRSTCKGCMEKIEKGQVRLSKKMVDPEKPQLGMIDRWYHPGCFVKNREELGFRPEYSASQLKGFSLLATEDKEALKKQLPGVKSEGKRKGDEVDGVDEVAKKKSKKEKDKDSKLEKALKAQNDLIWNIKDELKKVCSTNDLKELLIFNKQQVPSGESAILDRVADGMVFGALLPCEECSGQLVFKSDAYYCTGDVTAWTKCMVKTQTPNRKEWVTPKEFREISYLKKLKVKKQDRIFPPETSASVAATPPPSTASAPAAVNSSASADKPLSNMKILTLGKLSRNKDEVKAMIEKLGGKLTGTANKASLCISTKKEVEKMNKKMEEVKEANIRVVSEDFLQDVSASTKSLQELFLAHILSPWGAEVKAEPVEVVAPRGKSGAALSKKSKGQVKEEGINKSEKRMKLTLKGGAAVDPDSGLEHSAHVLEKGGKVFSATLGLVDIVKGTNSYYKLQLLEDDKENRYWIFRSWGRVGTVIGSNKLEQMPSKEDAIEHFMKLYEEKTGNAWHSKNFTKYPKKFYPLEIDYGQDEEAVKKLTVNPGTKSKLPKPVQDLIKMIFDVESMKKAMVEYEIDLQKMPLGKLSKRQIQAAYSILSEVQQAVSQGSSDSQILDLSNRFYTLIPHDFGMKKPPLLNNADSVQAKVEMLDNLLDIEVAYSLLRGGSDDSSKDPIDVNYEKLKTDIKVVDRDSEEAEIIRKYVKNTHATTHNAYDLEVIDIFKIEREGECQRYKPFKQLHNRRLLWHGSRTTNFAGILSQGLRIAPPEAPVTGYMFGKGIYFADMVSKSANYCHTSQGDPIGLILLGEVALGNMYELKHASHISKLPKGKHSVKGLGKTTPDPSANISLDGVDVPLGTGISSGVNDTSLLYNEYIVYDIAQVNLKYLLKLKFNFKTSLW
Description: The reaction is initiated by incubating the mixture at 25° C. After 15 minutes of incubation, the reaction is terminated by adding 500 microliters of ice cold 20% (w/v) trichloroacetic acid. The precipitate formed is transferred onto a glass fiber filter (Packard Unifilter-GF/B) and washed three times with ethanol. After the filter is dried, the radioactivity is determined by scintillation counting.
Using the PARP assay described above, approximate IC50 (μM) values were obtained as shown in the following Table III, which also include specific embodiments of the compounds of the present invention: […]

[2] = Table III, read-out: approximate IC50

Row | SMILES | IC50 [1, 2] | IC50 ([1]; examples table, read-out: IC50) | also measured
1 | Oc1cccc2c(O)nccc12 [1,5-dihydroxyisoquinoline] |  |  | reduction in infarct size (rabbits; single injection 1 mg/kg): 38–42%
2 | O=C1N=Cc2cccc3c2C1c1ccccc1O3 (stereo not drawn) [1,11b-dihydrobenzopyrano[4,3,2-de]isoquinolin-1-one] |  |  | inhibition of cell influx vs. the vehicle group (Swiss albino mice; 45 mg/kg i.p., MSU crystals, 6 h): 55%; Neutrophil Numbers (single mice) (Swiss albino mice; group C, 45 mg/kg i.p. 1 h prior to 3 mg MSU crystals, peritoneal lavage at 6 h, one value per mouse, 45 mg/kg): 2.4 10^6 per mouse (2×) and 3.0 10^6 per mouse (2×) and 2.7 10^6 per mouse and 2.1 10^6 per mouse (2×) and 5.1 10^6 per mouse; Neutrophils (10^6 per mouse), mean ± S.E. (Swiss albino mice; group C, 45 mg/kg i.p., MSU crystals (3 mg), 6 h, n=8, P<0.05 vs. vehicle group B (6.30 ± 0.33)): 2.85 ± 0.34 (8)* 10^6 per mouse
3 | NC(=O)c1cccc(N)c1 [3-aminobenzamide] |  |  | reduction in infarct size in the heart (rabbits; single injection 10 mg/kg, one minute before occlusion or one minute before reperfusion): 32–42%
4 | O=C1NCCc2c(OCCCCN3CCCCC3)cccc21 [DPQ, 3,4-dihydro-5-[4-(1-piperidinyl)-butoxy]-1(2H)-isoquinolinone] |  |  | IC50 (PARP): 40 nM; damaged volume (infarct volume) (male Long-Evans rats; 5 mg/kg i.p. 2 h before and 2 h after MCA occlusion, control 165.2±34.0, p<0.001): 106.7±23.2 mm^3; damaged volume (infarct volume) (male Long-Evans rats; 10 mg/kg i.p. 2 h before and 2 h after MCA occlusion, control 165.2±34.0, p<0.001): 76.4±16.3 mm^3; damaged volume (infarct volume) (male Long-Evans rats; 20 mg/kg i.p. 2 h before and 2 h after MCA occlusion, control 165.2±34.0, p<0.01): 110.2±42.0 mm^3; damaged volume (infarct volume) (male Long-Evans rats; 40 mg/kg i.p. 2 h before and 2 h after MCA occlusion, no significant difference from control 165.2±34.0): 135.6±44.8 mm^3
5 | CN(C)CCCN1CCN(CC(=O)Nc2ccc3[nH]c(=O)c4cccc5c4c3c2C5)CC1 [Example 49] | 72 nM | 72 nM | 
6 | CN(C)CCN1CCN(CC(=O)Nc2ccc3[nH]c(=O)c4cccc5c4c3c2C5)CC1 [Example 50] | 115 nM | 115 nM | 
7 | CN1CCCC(CN2CCN(CC(=O)Nc3ccc4[nH]c(=O)c5cccc6c5c4c3C6)CC2)C1 (stereo not drawn) [Example 51] | 178 nM | 178 nM | 
8 | CN1CCC(CN2CCN(CC(=O)Nc3ccc4[nH]c(=O)c5cccc6c5c4c3C6)CC2)CC1 [Example 52] | 96 nM | 96 nM | 
9 | CN1CCC(N2CCN(CC(=O)Nc3ccc4[nH]c(=O)c5cccc6c5c4c3C6)CC2)CC1 [Example 53] | 119 nM | 119 nM | 
10 | O=C(CN1CCN(Cc2ccncc2)CC1)Nc1ccc2[nH]c(=O)c3cccc4c3c2c1C4 [Example 54] | 267 nM | 267 nM | 
11 | O=C(CN1CCN(CCN2CCOCC2)CC1)Nc1ccc2[nH]c(=O)c3cccc4c3c2c1C4 [Example 55] | 558 nM | 558 nM | 
12 | O=C(CN1CCN(c2ccncc2)CC1)Nc1ccc2[nH]c(=O)c3cccc4c3c2c1C4 [Example 56] | 204 nM | 204 nM | 
13 | CN(C)CCN(C)CC(=O)Nc1ccc2[nH]c(=O)c3cccc4c3c2c1C4 [Example 57] | 55 nM | 55 nM | 
14 | O=C(CN1CCN(CCN2CCCC2)CC1)Nc1ccc2[nH]c(=O)c3cccc4c3c2c1C4 [Example 58] | 390 nM | 390 nM | 
